The values below come from ChEMBL document CHEMBL3792292, “Development of a potent and selective FLT3 kinase inhibitor by systematic expansion of a non-selective fragment-screening hit” (Bioorg Med Chem Lett, 2016).

The target in assay [1] is Vascular endothelial growth factor receptor 2 (Homo sapiens) (UniProt P35968). Kind of assay: Inhibition of human N-terminal GST-tagged KDR cytoplasmic domain (790 to 1356 residues) expressed in baculovirus expression system using fluorescence labelled CSKtide as substrate at 50 times IC50 by electrophoretic mobility shift assay relative to control.
Chain of Vascular endothelial growth factor receptor 2 (Homo sapiens) (P35968 whole entry, the tested form may be a part): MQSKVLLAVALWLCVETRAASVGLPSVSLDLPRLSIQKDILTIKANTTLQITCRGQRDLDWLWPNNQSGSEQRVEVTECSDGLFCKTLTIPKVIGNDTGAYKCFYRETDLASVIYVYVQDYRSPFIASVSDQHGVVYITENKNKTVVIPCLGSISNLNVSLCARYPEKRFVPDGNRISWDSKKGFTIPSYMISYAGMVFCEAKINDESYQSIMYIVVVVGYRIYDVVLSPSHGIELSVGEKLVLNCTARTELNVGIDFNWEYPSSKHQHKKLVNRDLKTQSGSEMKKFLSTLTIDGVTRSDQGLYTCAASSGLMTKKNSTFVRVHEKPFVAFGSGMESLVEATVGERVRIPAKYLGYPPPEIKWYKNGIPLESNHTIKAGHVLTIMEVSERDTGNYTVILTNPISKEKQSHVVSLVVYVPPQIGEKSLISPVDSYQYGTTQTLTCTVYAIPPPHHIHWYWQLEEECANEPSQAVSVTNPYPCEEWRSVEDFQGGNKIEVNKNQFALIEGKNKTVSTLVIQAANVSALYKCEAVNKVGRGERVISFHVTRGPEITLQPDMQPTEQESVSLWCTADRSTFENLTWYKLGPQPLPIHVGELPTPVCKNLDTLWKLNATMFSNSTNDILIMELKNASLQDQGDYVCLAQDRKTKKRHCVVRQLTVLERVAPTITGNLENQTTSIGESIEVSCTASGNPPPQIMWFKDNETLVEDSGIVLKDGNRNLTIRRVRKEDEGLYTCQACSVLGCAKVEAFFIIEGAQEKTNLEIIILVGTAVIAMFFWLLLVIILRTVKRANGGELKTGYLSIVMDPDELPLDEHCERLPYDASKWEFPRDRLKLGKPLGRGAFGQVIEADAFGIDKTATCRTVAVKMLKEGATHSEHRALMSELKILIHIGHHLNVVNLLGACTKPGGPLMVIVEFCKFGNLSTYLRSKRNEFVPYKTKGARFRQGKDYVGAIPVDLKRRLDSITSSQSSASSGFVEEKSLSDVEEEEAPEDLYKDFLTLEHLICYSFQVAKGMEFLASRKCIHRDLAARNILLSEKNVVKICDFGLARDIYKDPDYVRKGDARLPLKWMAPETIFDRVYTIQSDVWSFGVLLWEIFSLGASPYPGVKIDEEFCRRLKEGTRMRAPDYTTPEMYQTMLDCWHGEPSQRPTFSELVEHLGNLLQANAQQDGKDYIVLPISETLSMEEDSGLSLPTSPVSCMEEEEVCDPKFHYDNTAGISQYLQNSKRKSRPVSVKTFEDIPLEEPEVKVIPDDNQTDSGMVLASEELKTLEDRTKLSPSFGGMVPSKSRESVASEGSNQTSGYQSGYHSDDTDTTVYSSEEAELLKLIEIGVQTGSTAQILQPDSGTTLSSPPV
For assay [2], the target named is Mitogen-activated protein kinase kinase kinase kinase 4 (Homo sapiens, UniProt O95819). Kind of assay: Inhibition of human N-terminal GST-tagged HGK catalytic domain (1 to 328 residues) expressed in baculovirus expression system using fluorescence labelled moesin-derived peptide substrate at 50 times IC50 by electrophoretic mobility shift assay relative to control.
Chain of Mitogen-activated protein kinase kinase kinase kinase 4 (O95819 2-1239 limits assumed): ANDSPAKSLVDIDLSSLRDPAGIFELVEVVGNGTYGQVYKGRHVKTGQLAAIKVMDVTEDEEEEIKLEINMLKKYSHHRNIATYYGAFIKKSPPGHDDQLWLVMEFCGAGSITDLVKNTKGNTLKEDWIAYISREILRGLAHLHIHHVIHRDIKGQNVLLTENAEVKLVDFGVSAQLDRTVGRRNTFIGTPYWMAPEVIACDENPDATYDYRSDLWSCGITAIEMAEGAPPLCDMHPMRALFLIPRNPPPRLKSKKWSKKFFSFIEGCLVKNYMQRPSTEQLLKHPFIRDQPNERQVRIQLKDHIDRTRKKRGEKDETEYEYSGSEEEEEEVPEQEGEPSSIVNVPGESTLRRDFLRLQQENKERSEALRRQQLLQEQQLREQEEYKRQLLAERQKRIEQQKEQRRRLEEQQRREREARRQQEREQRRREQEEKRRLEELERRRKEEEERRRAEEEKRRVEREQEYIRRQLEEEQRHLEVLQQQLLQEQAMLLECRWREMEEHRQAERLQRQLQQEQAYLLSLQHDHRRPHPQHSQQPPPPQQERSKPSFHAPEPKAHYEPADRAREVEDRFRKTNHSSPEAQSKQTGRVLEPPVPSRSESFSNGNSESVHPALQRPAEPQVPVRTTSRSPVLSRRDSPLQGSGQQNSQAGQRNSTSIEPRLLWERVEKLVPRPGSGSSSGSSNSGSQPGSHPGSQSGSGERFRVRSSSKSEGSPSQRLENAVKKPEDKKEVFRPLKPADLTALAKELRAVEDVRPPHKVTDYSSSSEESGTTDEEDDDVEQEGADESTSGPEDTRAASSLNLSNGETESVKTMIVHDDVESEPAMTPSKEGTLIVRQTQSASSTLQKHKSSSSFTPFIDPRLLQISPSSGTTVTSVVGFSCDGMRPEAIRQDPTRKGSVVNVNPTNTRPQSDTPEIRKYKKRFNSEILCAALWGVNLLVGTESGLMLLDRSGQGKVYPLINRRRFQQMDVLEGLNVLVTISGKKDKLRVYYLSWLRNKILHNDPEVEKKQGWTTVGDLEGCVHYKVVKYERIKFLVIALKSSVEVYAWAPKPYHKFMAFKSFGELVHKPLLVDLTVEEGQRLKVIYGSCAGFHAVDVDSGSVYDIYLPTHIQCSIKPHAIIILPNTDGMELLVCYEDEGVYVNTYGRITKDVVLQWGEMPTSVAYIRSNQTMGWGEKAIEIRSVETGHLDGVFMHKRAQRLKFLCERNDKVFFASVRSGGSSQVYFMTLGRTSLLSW

The target in assay [3] is T1, Lymphokine-activated killer T-cell-originated protein kinase (Homo sapiens) (UniProt Q96KB5).
T1 sequence (whole entry): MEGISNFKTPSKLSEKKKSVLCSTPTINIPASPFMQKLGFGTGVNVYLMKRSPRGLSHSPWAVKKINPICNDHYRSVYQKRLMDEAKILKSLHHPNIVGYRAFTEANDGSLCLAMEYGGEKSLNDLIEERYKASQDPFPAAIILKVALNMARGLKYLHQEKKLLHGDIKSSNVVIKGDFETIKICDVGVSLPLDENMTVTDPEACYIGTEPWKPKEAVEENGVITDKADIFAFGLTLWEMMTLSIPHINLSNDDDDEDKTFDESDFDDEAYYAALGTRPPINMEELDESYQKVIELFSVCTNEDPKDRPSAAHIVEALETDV
Kind of assay: Inhibition of full length human N-terminal GST-tagged PBK (1 to 322 residues) expressed in baculovirus expression system using fluorescence labelled histone H3 peptide substrate at 50 times IC50 by electrophoretic mobility shift assay relative to control. (A gel shift assay detects complexes by their altered migration in electrophoresis.)

The target in assay [4] is Proto-oncogene tyrosine-protein kinase Src (Homo sapiens) (UniProt P12931). The assay is described as follows: Inhibition of full length human N-terminal GST-tagged SRC (1 to 536 residues) expressed in baculovirus expression system using fluorescence labelled srctide as substrate at 50 times IC50 by electrophoretic mobility shift assay relative to control.
Chain of Proto-oncogene tyrosine-protein kinase Src (Homo sapiens) (P12931 2-536 limits assumed): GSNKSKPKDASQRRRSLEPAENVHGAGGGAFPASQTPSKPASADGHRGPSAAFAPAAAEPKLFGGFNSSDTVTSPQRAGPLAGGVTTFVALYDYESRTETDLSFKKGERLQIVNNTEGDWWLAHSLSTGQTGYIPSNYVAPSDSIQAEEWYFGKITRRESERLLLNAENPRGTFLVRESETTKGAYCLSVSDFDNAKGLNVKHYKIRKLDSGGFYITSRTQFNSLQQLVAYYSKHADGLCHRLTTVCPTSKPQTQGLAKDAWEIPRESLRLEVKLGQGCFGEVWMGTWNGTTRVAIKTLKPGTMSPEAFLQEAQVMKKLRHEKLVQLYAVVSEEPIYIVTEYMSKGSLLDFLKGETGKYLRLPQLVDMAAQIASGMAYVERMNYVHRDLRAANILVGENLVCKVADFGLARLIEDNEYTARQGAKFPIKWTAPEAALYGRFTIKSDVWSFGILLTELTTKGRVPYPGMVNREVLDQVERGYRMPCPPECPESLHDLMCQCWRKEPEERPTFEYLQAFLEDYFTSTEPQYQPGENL
The target in assay [5] is cAMP-dependent protein kinase catalytic subunit alpha (Homo sapiens) (UniProt P17612). Kind of assay: Inhibition of full length human N-terminal GST-tagged PKACalpha (1 to 351 residues) expressed in baculovirus expression system using fluorescence labelled kemptide as substrate at 50 times IC50 by electrophoretic mobility shift assay relative to control.
Assay [6] deals with T2, Serine/threonine-protein kinase D2 (Homo sapiens) (UniProt Q9BZL6).
T2 sequence (whole entry): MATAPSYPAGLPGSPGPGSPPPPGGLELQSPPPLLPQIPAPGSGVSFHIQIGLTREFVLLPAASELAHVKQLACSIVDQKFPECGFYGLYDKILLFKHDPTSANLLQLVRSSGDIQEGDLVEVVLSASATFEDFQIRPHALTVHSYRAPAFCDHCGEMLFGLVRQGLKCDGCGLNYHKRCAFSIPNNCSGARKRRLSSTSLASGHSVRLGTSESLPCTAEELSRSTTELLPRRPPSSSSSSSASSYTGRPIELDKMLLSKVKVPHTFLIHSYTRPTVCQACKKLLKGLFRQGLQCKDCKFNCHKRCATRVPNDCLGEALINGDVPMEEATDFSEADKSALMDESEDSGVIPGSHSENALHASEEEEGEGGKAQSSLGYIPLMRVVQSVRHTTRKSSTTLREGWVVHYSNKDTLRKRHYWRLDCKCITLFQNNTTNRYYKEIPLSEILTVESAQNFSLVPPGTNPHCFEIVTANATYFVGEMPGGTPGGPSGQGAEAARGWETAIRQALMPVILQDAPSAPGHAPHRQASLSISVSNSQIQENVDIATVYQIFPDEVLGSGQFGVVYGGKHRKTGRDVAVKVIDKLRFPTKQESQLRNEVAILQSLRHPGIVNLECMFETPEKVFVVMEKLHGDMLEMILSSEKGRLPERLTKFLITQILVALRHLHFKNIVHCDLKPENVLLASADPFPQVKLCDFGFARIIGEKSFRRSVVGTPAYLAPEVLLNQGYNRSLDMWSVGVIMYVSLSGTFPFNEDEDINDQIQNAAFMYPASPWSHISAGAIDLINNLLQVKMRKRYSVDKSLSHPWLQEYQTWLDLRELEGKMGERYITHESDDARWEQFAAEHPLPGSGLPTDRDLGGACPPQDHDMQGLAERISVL
Kind of assay: Inhibition of full length human N-terminal GST-tagged PKD2 (1 to 878 residues) expressed in baculovirus expression system using fluorescence labelled GS peptide substrate at 50 times IC50 by electrophoretic mobility shift assay relative to control.

Assay [7] has as its target T3, Testis-specific serine/threonine-protein kinase 1 (Homo sapiens) (UniProt Q9BXA7).
T3 sequence (whole entry): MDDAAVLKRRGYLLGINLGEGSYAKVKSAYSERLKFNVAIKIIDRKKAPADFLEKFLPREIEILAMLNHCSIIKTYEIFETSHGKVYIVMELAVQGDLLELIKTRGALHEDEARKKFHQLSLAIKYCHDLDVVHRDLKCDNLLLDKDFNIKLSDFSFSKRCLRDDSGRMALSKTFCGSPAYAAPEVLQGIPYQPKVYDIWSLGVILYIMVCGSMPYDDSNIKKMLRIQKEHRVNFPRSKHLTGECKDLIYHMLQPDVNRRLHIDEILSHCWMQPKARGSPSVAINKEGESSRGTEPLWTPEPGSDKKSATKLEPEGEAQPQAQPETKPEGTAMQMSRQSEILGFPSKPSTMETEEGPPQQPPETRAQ
The assay is described as follows: Inhibition of full length human N-terminal GST-tagged TSSK1 (1 to 367 residues) expressed in baculovirus expression system using fluorescence labelled GS peptide substrate at 50 times IC50 by electrophoretic mobility shift assay relative to control.

The target of assay [8] is T4, Calcium/calmodulin-dependent protein kinase type IV (Homo sapiens) (UniProt Q16566).
T4 sequence (whole entry): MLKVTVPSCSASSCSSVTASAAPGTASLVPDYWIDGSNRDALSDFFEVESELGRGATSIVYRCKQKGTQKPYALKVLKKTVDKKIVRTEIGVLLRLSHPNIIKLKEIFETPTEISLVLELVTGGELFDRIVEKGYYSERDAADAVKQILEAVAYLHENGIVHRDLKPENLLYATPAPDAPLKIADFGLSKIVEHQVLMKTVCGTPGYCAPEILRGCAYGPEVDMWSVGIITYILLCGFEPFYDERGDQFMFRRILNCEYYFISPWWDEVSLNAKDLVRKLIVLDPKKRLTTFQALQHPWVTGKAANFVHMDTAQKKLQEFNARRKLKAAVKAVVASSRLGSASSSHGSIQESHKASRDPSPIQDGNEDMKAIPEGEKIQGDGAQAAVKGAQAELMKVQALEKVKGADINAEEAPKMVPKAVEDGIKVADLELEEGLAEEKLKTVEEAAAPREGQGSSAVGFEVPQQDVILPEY
Kind of assay: Inhibition of full length human N-terminal GST-tagged CAMK4 (1 to 473 residues) expressed in baculovirus expression system using fluorescence labelled GS peptide as substrate at 50 times IC50 by electrophoretic mobility shift assay relative to control.

As usually defined, the inhibition is the change of the read-out against control, counted positive when it falls. For `O=C(Nc1ccccc1)c1n[nH]c2ccccc12`, the inhibition stood at 44.2% in assay [1]; 92.5% in assay [2]; 4.5% in assay [3]; 6.1% in assay [4]; 3.1% in assay [5]; 1.3% in assay [6]. Also, the inhibition is 12.9% in assay [7] and 21.2% in assay [8].

In the case of `O=C(Nc1ccc(C(=O)N2CCN(c3ccccc3)CC2)cc1)c1n[nH]c2ccccc12`, the inhibition in assay [1] is 34.2%; in assay [2] it was 90.6%; in assay [3] it was -1.9%; in assay [4] it was 2.5%; in assay [5], 2.7%; in assay [6] it was 5.7%. Moreover, the inhibition in assay [7] amounted to 4.3%; in assay [8], 2.7%.

Turning to `O=C(Nc1ccc(CN2CCN(c3ccccc3)CC2)cc1)c1n[nH]c2ccccc12`, the inhibition was 15.8% in assay [1]; 62.8% in assay [2]; -3.1% in assay [3]; 0.6% in assay [4]; -1.4% in assay [5]; 4.5% in assay [6]. The inhibition in assay [7] was found to be 1%; in assay [8], 0.8%.
